Results published in patent publication US10406383B2, “Apparatus for treatment of dermatological conditions” (CAREWEAR CORP., priority 2004, dated 2019).
Marks after values point to notes of the source that are not given here.

What was measured:
HSP70 mRNA = conditions: rats, aspirin 100 mg/kg intraperitoneally 60 min before 37° C. for 30 min; cited from earlier work
[1] = test system: fibrillin-rich microfibrils proximal to the dermal-epidermal junction (DEJ); assay: Seven-day patch test, fibrillin-1 immunohistochemistry; format: in vivo, human; conditions: patch test under occlusion
Source text: (§1) The standard four-day patch test assay was extended to a seven-day period to examine the effect of the Topical 1 formulation under occlusion or delivered by ultrasound on the induction of fibrillin expression as a mechanism by which clinical signs of photoageing may be improved.
Fibrillin is a major constituent of the elastin network in the papillary dermis and plays an important role in securing the epidermis to the underlying dermis. Topical application of all-trans retinoic acid (t-RA) as a positive control ameliorates the clinical signs of photoageing.
(§2) Six healthy but photoaged female volunteers were recruited (age range 52-79 years). […]
(§3) A number of extracellular matrix (ECM) molecules known to be reduced in photoaged skin were assayed by immunohistochemistry to detail the potential effects of the Topical 1 formulation and its method of delivery. […] Also assessed were the number of epidermal keratinocytes expressing MMP-1 and RARα. […]
Sections were randomised, blinded and examined on a Nikon OPTIPHOT microscope (Tokyo, Japan). For assessment of ECM components, the degree of immunostaining was assessed on a 5 point semi-quantitative scale where 0=no staining and 4=maximal staining. […] The degree of immunostaining was scored for three high power fields per section, and the average score calculated for each site/test area. […]

[2] = test system: MMP-1 expression in epidermal keratinocytes; assay: Seven-day patch test, MMP-1 immunohistochemistry; format: in vivo, human; conditions: patch test under occlusion
Source text: as §1
(§4) Ageing can also be monitored by examination of other molecules within the skin. Previous work has identified alterations in the expression of the enzyme matrix metalloproteinase 1 (MMP-1; essential for extracellular matrix remodelling)^3 and in the nuclear retinoid receptor retinoic acid receptor α (RARα; necessary for modulating the effects of vitamin A and its derivatives)^4. Two molecular chaperones were assessed to identify pathways for eliminating abnormal proteins; these were heat shock protein-72 (HSP72)^5 and the extracellular chaperone, clusterin^6.
as §2, §3
(§5) For cell-associated staining, the numbers of positive epidermal keratinocytes were assessed per high powered field, and the average score calculated for each site/test area. […]

[3] = test system: RARα expression in epidermal keratinocytes; assay: Seven-day patch test, RARα immunohistochemistry; format: in vivo, human; conditions: patch test under occlusion
Source text: as §1, §4, §2, §3, §5

[4] = test system: HSP72 expression in the epidermis; assay: Seven-day patch test, HSP72 immunohistochemistry; format: in vivo, human; conditions: patch test under occlusion
Source text: as §1, §4, §2, §3, §5

[5] = Erythema and skin tolerability observations during the trial; format: in vivo, human; conditions: patch test protocol
Experimental: Six healthy but photoaged female volunteers were recruited (age range 52-79 years). Test substances were applied separately under standard 6 mm diameter Finn chambers to the extensor aspect of the forearm: these were Topical 1 formulation (20 μl/chamber), vehicle base (20 μl/chamber) and 0.025% all-trans RA (Retin-A® cream, Janssen-Cilag Ltd., 20 μl/chamber). In addition, a baseline untreated biopsy was taken as a reference point. Formulations were applied to clean skin on days 1 and 4 of the assay. All-trans RA was applied to an untreated site on day 4. On day 8, Finn chambers were removed and 3 mm punch biopsies were obtained under 1% lignocaine anaesthesia from each of the test site. Biopsies were embedded in OCT compound (Tissue-Tek®, Miles, Ind., USA) and snap frozen in liquid nitrogen. Biopsy sites were sutured with 1×4/o ethilon and subjects instructed to return between 7-10 days for suture removal.
Ten healthy but photoaged volunteers were recruited (men: 2; female: 8; age range 40-79 years). Topical 1 formulation was applied to extensor forearms alone and with the aid of an ultrasound device (Duo Son™ unit, Orthosonics, Devon UK). Low frequency (45 kHz, 100 mW/cm^2, continuous) and high frequency (1 MHz, 1 W/cm^2 pulsed average, pulsed 20% cycle) were applied simultaneously for a period of ten minutes, during which time the ultrasound delivery head was moved over the skin. […]

[6] = positive epidermal keratinocytes per high powered field

Row | Structure (SMILES) | levels of HSP70 mRNA relative to heat treatment alone (HSP70 mRNA) [fold] | Fibrillin-1 staining Mean ([1]; photoaged forearm, biopsy day 8, 5 point scale 0=no staining, 4=maximal staining, p > 0.05) | volunteers with fibrillin-1 deposition proximal to the DEJ ([1]; six volunteers) | effect on MMP-1 expression in epidermal keratinocytes ([2]; result in words) | MMP-1 staining Mean ([2]; positive epidermal keratinocytes per high powered field, p > 0.05) | effect on RARα expression in epidermal keratinocytes ([3]; result in words) | RARα staining Mean [3, 6] | effect on expression of epidermal HSP72 ([4]; result in words) | HSP72 staining Mean [4, 6] | Erythema at the site of application [5]
1 | CC(=O)Oc1ccccc1C(=O)O [aspirin, acetylsalicyclic acid] | 3 to 4 | – | – | – | – | – | – | – | – | –
2 | CC1=C(/C=C/C(C)=C/C=C/C(C)=C/C(=O)O)C(C)(C)CCC1 [All-trans RA, all-trans retinoic acid] | – | 1.8241 | 3/6 | reduced MMP-1 expression in epidermal keratinocytes, although this did not reach significance | 5.3333 | significantly reduced RARα expression in epidermal keratinocytes | 6.0463 | significantly increased the expression of epidermal HSP72 | 77.03** | marked erythema
